The values that follow come from patent EP4644383A1 (Jiangsu Yahong Meditech Co., Ltd., priority 2022, dated 2024).

Like-named read-outs stand apart in the source and are kept apart here.

The target of one test is T1, FGFR1 (Homo sapiens, UniProt P11362).
T1 construct: cytoplasmic domain [398-822 (terminal) amino acids]; purchased Carna 08-133
The test can be described thus: FGFR1 kinase activity inhibition assay (LanthaScreen TR-FRET). Format: biochemical. Here is the method:
PV3552) and 10 mM EDTA were added to quench the kinase reaction, and incubated at 22°C for 60 minutes. • ⑤ The reaction was measured using a PerkinElmer EnVision multimode plate reader through TR-FRET dual wavelength detection. • 1. The RFU values were copied from the Envision program. • 2. The ratio of RFU 520nm/RFU 495nm was calculated. • 3. The value of the ratio was converted to a percentage inhibition value. % Inhibition = (max-data)/(max-min) × 100 [formula] "Min" represents the ratio of the control without enzyme, "max" represents the ratio of the DMSO control, and "data" represents the ratio of the compounds in wells with different concentrations. […] "Top" refers to the maximum response, "Bottom" refers to the minimum response, and "HillSlope" refers to the slope of the curve.

The target of a further test is T2, FGFR3 (Homo sapiens, UniProt P22607).
T2 construct: FGFR3's cytoplasmic domain [436-806 (terminal) amino acids]; purchased Carna 08-135
The experiment in a line: FGFR3 kinase activity inhibition assay (LanthaScreen TR-FRET). Format: biochemical. The settings on record: for Selectivity (X) FGFR1/FGFR3: ratio of IC50 FGFR1/FGFR3, selectivity towards FGFR3. In a few lines: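 Read-out is TR-FRET, with the 520 nm/495 nm emission ratio normalised to DMSO (max) and enzyme-free (min) controls. Enzyme was the FGFR3 cytoplasmic domain, residues 436-806. EDTA (10 mM) stopped the reaction, followed by 60 min at 22 °C before reading.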

[1] abbreviates: FGFR1 kinase, TR-FRET, read-out: IC50 (nM) FGFR1.
Where [2] appears, read: FGFR3 kinase, TR-FRET, read-out: IC50 (nM) FGFR3.

T2 sequence (P22607 436-806): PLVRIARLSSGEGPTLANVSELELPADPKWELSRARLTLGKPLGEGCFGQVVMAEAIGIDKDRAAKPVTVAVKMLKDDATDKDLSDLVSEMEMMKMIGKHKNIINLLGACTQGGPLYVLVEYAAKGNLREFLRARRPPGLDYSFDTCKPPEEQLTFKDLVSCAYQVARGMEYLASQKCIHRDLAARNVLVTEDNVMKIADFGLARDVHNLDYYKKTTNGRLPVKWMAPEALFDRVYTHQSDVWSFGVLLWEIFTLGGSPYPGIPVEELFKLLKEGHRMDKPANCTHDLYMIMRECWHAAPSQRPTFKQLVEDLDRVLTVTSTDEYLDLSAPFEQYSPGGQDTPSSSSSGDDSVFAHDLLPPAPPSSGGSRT
T1 sequence (P11362 398-822): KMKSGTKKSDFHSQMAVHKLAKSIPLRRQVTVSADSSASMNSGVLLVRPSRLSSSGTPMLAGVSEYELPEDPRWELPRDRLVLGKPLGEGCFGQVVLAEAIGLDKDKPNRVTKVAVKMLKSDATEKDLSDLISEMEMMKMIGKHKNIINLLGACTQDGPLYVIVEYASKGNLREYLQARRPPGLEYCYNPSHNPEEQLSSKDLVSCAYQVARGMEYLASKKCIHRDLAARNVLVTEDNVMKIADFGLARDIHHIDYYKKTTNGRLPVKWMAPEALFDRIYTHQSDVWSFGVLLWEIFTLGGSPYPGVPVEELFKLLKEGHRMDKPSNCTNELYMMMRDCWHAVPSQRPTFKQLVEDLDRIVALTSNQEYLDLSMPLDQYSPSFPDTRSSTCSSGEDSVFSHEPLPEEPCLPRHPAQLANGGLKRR

Turning to `C[C@@H](Oc1ccc2[nH]nc(-c3cnn(CCN4CCCC4=O)c3)c2n1)c1c(Cl)cncc1Cl` [Example 64, (R)-1-(2-(4-(5-(1-(3,5-dichloropyridin-4-yl)ethoxy)-1H-pyrazolo[4,3-b]pyridin-3-yl)-1H-pyrazol-1-yl)ethyl)pyrrolidin-2-one], the results for the 50% inhibitory concentration (IC50) on FGFR1 (setting [1]) and on FGFR3 (setting [2]) were 10 to 100 nM and 1 to 10 nM, respectively. Moreover, the “Selectivity (X) FGFR1/FGFR3” value on FGFR3 is given as “A (A represents 1 ≤ multiple X<20)”.

In the case of `CNCCNS(=O)(=O)c1ccc2[nH]nc(-c3cnn(C)c3)c2c1` [Example 76, 3-(1-methyl-1H-pyrazol-4-yl)-N-(2-(methylamino)ethyl)-1H-indazole-5-sulfonamide], the IC50 on FGFR1 (setting [1]) and on FGFR3 (setting [2]) was over 100 nM each time. For the same compound, at FGFR3, the “Selectivity (X) FGFR1/FGFR3” value is “A (A represents 1 ≤ multiple X<20)”.

Take `CC(Oc1ccc2[nH]nc(-c3cnn(C)c3)c2c1)c1ccnc2ccccc12` (stereo not drawn) [Example 87, 4-(1-((3-(1-methyl-1H-pyrazol-4-yl)-1H-indazol-5-yl)oxy)ethyl)quinoline]: the half-maximal inhibitory concentration (IC50) on FGFR1 (setting [1]) was over 100 nM; on FGFR3 (setting [2]), 10 to 100 nM. Also, the “Selectivity (X) FGFR1/FGFR3” value on FGFR3 is recorded as “B (B represents 20 ≤ multiple X<50)”.

For `Cc1ccc2ncccc2c1C(C)Oc1ncc2[nH]nc(-c3cnn(C)c3)c2n1` (stereo not drawn) [Example 110, 6-methyl-5-(1-((3-(1-methyl-1H-pyrazol-4-yl)-1H-pyrazino [4,3-d]pyrimidin-5-yl)oxy)ethyl)quinoline], at FGFR1, the IC50 lay in the range of 10 to 100 nM. On FGFR3, the IC50 is 1 to 10 nM and the “Selectivity (X) FGFR1/FGFR3” value is given as “A (A represents 1 ≤ multiple X<20)”.

On to `CCc1ccc2ncccc2c1C(C)Oc1ccc2[nH]nc(-c3cnn(C)c3)c2c1` (stereo not drawn) [Example 111, 6-ethyl-5-(1-((3-(1-methyl-1H-pyrazol-4-yl)-1H-indazol-5-yl)oxy)ethyl)qu inoline], for which the results for the IC50 at FGFR1 (setting [1]) and on FGFR3 (setting [2]) were 10 to 100 nM and 1 to 10 nM, respectively. The “Selectivity (X) FGFR1/FGFR3” value at FGFR3 was “A (A represents 1 ≤ multiple X<20)”.

In the case of `Cc1ccc2nccnc2c1C(C)Oc1ccc2[nH]nc(-c3cnn(C)c3)c2c1` (stereo not drawn) [Example 112], the results for the IC50 on FGFR1 (setting [1]) and at FGFR3 (setting [2]) were 10 to 100 nM and under 1 nM, respectively. Moreover, the “Selectivity (X) FGFR1/FGFR3” value on FGFR3 is “A (A represents 1 ≤ multiple X<20)”.

As to `CCC(Oc1ccc2[nH]nc(-c3cnn(C)c3)c2c1)c1c(C)ccc2ncccc12` (stereo not drawn) [Example 113, 6-methyl-5-(1-((3-(1-methyl-1H-pyrazol-4-yl)-1H-indazol-5-yl)oxy)propyl)quinoline], the figures for the IC50 at FGFR1 (setting [1]) and at FGFR3 (setting [2]) were 10 to 100 nM and 1 to 10 nM, respectively. Further, the “Selectivity (X) FGFR1/FGFR3” value on FGFR3 is on record as “A (A represents 1 ≤ multiple X<20)”.

`CC(Oc1ccc2[nH]nc(-c3cnn(C)c3)c2c1)c1nccc2ncccc12` (stereo not drawn) [Example 120, 5-(1-((3-(1-methyl-1H-pyrazol-4-yl)-1H-indazol-5-yl)oxy)ethyl)-1,6-naphthyridine]: the values for the IC50 on FGFR1 (setting [1]) and on FGFR3 (setting [2]) were over 100 nM and 1 to 10 nM, respectively. Also, the “Selectivity (X) FGFR1/FGFR3” value on FGFR3 is “B (B represents 20 ≤ multiple X<50)”.

Turning to `Cc1cnc2cccc(C(C)Oc3ccc4[nH]nc(-c5cnn(C)c5)c4c3)c2c1` (stereo not drawn) [Example 128, 3-methyl-5-(1-((3-(1-methyl-1H-pyrazol-4-yl)-1H-indazol-5-yl)oxy)ethyl)qu inoline], the figures for the IC50 at FGFR1 (setting [1]) and at FGFR3 (setting [2]) were over 100 nM and 1 to 10 nM, respectively. In addition, the “Selectivity (X) FGFR1/FGFR3” value on FGFR3 was “B (B represents 20 ≤ multiple X<50)”.

Consider `CC(C)c1ccc2nccnc2c1C(C)Oc1ccc2[nH]nc(-c3cnn(C)c3)c2c1` (stereo not drawn) [Example 129, 6-isopropyl-5-(1-((3-(1-methyl-1H-pyrazol-4-yl)-1H-indazol-5-yl)oxy)ethyl)quino xaline], for which the IC50 at FGFR1 (setting [1]) and at FGFR3 (setting [2]) was 1 to 10 nM in each case. Further, at FGFR3, the “Selectivity (X) FGFR1/FGFR3” value was “A (A represents 1 ≤ multiple X<20)”.

On to `CC(Oc1ccc2[nH]nc(-c3cnn(C)c3)c2c1)c1cc(C2CC2)cc2nccnc12` (stereo not drawn) [Example 139, 7-cyclopropyl-5-(1-((3-(1-methyl-1H-pyrazol-4-yl)-1H-indazol-5-yl)oxy)ethyl)qu inoxaline], for which the IC50 was over 100 nM at FGFR1 (setting [1]) and 1 to 10 nM on FGFR3 (setting [2]). For the same compound, the “Selectivity (X) FGFR1/FGFR3” value at FGFR3 is on record as “C (C represents 50 ≤ multiple X<100)”.

As for `CC(Oc1ccc2[nH]nc(-c3cnn(C)c3)c2c1)c1cc(C#N)cc2nccnc12` (stereo not drawn) [Example 141, 8-(1-((3-(1-methyl-1H-pyrazol-4-yl)-1H-indazol-5-yl)oxy)ethyl)qu inoxaline-6-carbonitrile], the IC50 was 10 to 100 nM at FGFR1 (setting [1]) and under 1 nM on FGFR3 (setting [2]). For the same compound, the “Selectivity (X) FGFR1/FGFR3” value on FGFR3 is “B (B represents 20 ≤ multiple X<50)”.

Turning to `CC(Oc1ccc2[nH]nc(-c3cnn(C)c3)c2c1)c1cc(Br)cc2nccnc12` (stereo not drawn) [Example 143, 7-bromo-5-(1-((3-(1-methyl-1H-pyrazol-4-yl)-1H-indazol-5-yl)oxy)ethyl)quinoxaline], the 50% inhibitory concentration (IC50) on FGFR1 (setting [1]) lay within 10 to 100 nM; on FGFR3 (setting [2]) it was 1 to 10 nM. The “Selectivity (X) FGFR1/FGFR3” value at FGFR3 is listed as “B (B represents 20 ≤ multiple X<50)”.

At FGFR1, `CC(C)c1cc(C(C)Oc2ccc3[nH]nc(-c4cnn(C)c4)c3c2)c2nccnc2c1` (stereo not drawn) [Example 144, 7-isopropyl-5-(1-((3-(1-methyl-1H-pyrazol-4-y1)-1H-indazol-5-yl)oxy)ethyl)quino xaline] displayed an IC50 of over 100 nM. In addition, at FGFR3, the concentration for half-maximal inhibition (IC50) was under 1 nM and the “Selectivity (X) FGFR1/FGFR3” value was “C (C represents 50 ≤ multiple X<100)”.

On to `CC(Oc1ccc2[nH]nc(-c3cnn(C)c3)c2c1)c1cc(C(F)F)cc2nccnc12` (stereo not drawn) [Example 145, 7-(difluoromethyl)-5-(1-((3-(1-methyl-1H-pyrazol-4-yl)-1H-indazol-5-yl)oxy)ethyl)qu inoxaline], for which the IC50 is 1 to 10 nM on FGFR1 (setting [1]) and under 1 nM on FGFR3 (setting [2]). The “Selectivity (X) FGFR1/FGFR3” value on FGFR3 was “A (A represents 1 ≤ multiple X<20)”.

On to `CC(Oc1ccc2[nH]nc(-c3cnn(C)c3)c2c1)c1cccc2ncc(N)cc12` (stereo not drawn) [Example 147, 5-(1-((3-(1-methyl-1H-pyrazol-4-yl)-1H-indazol-5-yl)oxy)ethyl)qu inoline-3-amine], for which the results for the IC50 at FGFR1 (setting [1]) and on FGFR3 (setting [2]) were 10 to 100 nM and 1 to 10 nM, respectively. For the same compound, the “Selectivity (X) FGFR1/FGFR3” value on FGFR3 was “A (A represents 1 ≤ multiple X<20)”.

Regarding `COc1cc(C(C)Oc2ccc3[nH]nc(-c4cnn(C)c4)c3c2)c2cccnc2c1` (stereo not drawn) [Example 148, 7-methoxy-5-(1-((3-(1-methyl-1H-pyrazol-4-yl)-1H-indazol-5-yl)oxy)ethyl)qu inoline], the IC50 at FGFR1 (setting [1]) is over 100 nM; on FGFR3 (setting [2]), 1 to 10 nM. Also, at FGFR3, the “Selectivity (X) FGFR1/FGFR3” value is on record as “C (C represents 50 ≤ multiple X<100)”.

Turning to `CC(Oc1ccc2[nH]nc(-c3ccc(N4CCS(=O)(=O)CC4)nc3)c2c1)c1cccc2nccnc12` (stereo not drawn) [Example 149, 4-(5-(5-(1-(quinoxalin-5-yl)ethoxy)-1H-indazol-3-yl)pyridin-2-yl)thiomorpholine1,1-dioxide], the IC50 on FGFR1 (setting [1]) is 10 to 100 nM; at FGFR3 (setting [2]), under 1 nM. Further, the “Selectivity (X) FGFR1/FGFR3” value at FGFR3 is “B (B represents 20 ≤ multiple X<50)”.

As to `CC(Oc1ccc2[nH]nc(-c3cnn(C)c3)c2c1)c1cc(N)cc2ncccc12` (stereo not drawn) [Example 150, 5-(1-((3-(1-methyl-1H-pyrazol-4-yl)-1H-indazol-5-yl)oxy)ethyl)qu inoline-7-amine], the values for the IC50 on FGFR1 (setting [1]) and at FGFR3 (setting [2]) were 1 to 10 nM and under 1 nM, respectively. At FGFR3, the “Selectivity (X) FGFR1/FGFR3” value was “A (A represents 1 ≤ multiple X<20)”.

As to `CC(Oc1ccc2[nH]nc(-c3cnn(CCS(=O)(=O)N(C)C)c3)c2c1)c1cccc2nccnc12` (stereo not drawn) [Example 160, N,N-dimethyl-2-(4-(5-(1-(quinoxalin-5-yl)ethoxy)-1H-indazol-3-yl)-1H-pyrazol-1-yl)ethane-1-sulfonamide], the figures for the IC50 on FGFR1 (setting [1]) and at FGFR3 (setting [2]) were over 100 nM and 1 to 10 nM, respectively. For the same compound, the “Selectivity (X) FGFR1/FGFR3” value on FGFR3 is recorded as “B (B represents 20 ≤ multiple X<50)”.

Regarding `Cc1ccc2nnccc2c1C(C)Oc1ccc2[nH]nc(-c3cnn(C)c3)c2c1` (stereo not drawn) [Example 168, 6-methyl-5-(1-((3-(1-methyl-1H-pyrazol-4-yl)-1H-indazol-5-yl)oxy)ethyl)cinnoline], the values for the IC50 on FGFR1 (setting [1]) and at FGFR3 (setting [2]) were 10 to 100 nM and 1 to 10 nM, respectively. The “Selectivity (X) FGFR1/FGFR3” value on FGFR3 is “A (A represents 1 ≤ multiple X<20)”.

In the case of `CC(Oc1ccc2[nH]nc(-c3cnn(C4CN(C(N)=O)C4)c3)c2c1)c1cc(Cl)cc2nccnc12` (stereo not drawn) [Example 169, 3-(4-(5-(1-(7-chloroquinoxalin-5-yl)ethoxy)-1H-indazol-3-yl)-1H-pyrazol-1-yl)aze tidine-1-carboxamide], the values for the IC50 at FGFR1 (setting [1]) and on FGFR3 (setting [2]) were 10 to 100 nM and 1 to 10 nM, respectively. Further, the “Selectivity (X) FGFR1/FGFR3” value at FGFR3 is on record as “A (A represents 1 ≤ multiple X<20)”.

Take `CC(Oc1ccc2[nH]nc(-c3cnn(C4CN(C(=O)CN)C4)c3)c2c1)c1cccc2nccnc12` (stereo not drawn) [Example 175, 2-amino-1-(3-(4-(5-(1-(quinoxalin-5-yl)ethoxy)-1H-indazol-3-yl)-1-pyrazol-1-yl)azetidin-1-yl)ethan-1-one]: on FGFR1, the IC50 lay within 1 to 10 nM. Further, on FGFR3, the IC50 was under 1 nM and the “Selectivity (X) FGFR1/FGFR3” value is “A (A represents 1 ≤ multiple X<20)”.

Regarding `CC(Oc1ccc2[nH]nc(-c3cnn(C)c3)c2c1)c1nccn2nccc12` (stereo not drawn) [Example 176, 4-(1-((3-(1-methyl-1H-pyrazol-4-yl)-1H-indazol-5-yl)oxy)ethyl)py razolo[1,5-a]pyrazine], the IC50 at FGFR1 (setting [1]) lay in the range of 10 to 100 nM; at FGFR3 (setting [2]) it was 1 to 10 nM. For the same compound, on FGFR3, the “Selectivity (X) FGFR1/FGFR3” value is “A (A represents 1 ≤ multiple X<20)”.
